In patent publication US12685735B2 (Foghorn Therapeutics Inc., priority 2020, dated 2026):
Where two headings read alike, the source gives them in different places.

Tests used:
BRM = BRM (Homo sapiens, UniProt P51531); test: ATPase catalytic activity assay of BRM (ADP-Glo); format: biochemical; conditions: for IC50: read-out: BRM IC50 (μM)*
Procedure, shortened: (§1)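 Luminescent ADP-Glo readout of ADP generated by ATP hydrolysis. Post-reaction: ATP depletion reagent, RT 40 min; detection reagent converting ADP→ATP, RT 60 min; luminescence read.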

BRG-1 = BRG-1 (Homo sapiens, UniProt P51532); test: ATPase catalytic activity assay of BRG-1 (ADP-Glo); format: biochemical; conditions: for IC50: read-out: BRG1 IC50 (μM)*
Procedure, shortened: as §1

[1] = ATPase catalytic activity, ADP-Glo
[2] = ATPase catalytic activity, ADP-Glo, read-out: BRG1 Max % Inhibition

BRM, sequence (P51531 whole entry): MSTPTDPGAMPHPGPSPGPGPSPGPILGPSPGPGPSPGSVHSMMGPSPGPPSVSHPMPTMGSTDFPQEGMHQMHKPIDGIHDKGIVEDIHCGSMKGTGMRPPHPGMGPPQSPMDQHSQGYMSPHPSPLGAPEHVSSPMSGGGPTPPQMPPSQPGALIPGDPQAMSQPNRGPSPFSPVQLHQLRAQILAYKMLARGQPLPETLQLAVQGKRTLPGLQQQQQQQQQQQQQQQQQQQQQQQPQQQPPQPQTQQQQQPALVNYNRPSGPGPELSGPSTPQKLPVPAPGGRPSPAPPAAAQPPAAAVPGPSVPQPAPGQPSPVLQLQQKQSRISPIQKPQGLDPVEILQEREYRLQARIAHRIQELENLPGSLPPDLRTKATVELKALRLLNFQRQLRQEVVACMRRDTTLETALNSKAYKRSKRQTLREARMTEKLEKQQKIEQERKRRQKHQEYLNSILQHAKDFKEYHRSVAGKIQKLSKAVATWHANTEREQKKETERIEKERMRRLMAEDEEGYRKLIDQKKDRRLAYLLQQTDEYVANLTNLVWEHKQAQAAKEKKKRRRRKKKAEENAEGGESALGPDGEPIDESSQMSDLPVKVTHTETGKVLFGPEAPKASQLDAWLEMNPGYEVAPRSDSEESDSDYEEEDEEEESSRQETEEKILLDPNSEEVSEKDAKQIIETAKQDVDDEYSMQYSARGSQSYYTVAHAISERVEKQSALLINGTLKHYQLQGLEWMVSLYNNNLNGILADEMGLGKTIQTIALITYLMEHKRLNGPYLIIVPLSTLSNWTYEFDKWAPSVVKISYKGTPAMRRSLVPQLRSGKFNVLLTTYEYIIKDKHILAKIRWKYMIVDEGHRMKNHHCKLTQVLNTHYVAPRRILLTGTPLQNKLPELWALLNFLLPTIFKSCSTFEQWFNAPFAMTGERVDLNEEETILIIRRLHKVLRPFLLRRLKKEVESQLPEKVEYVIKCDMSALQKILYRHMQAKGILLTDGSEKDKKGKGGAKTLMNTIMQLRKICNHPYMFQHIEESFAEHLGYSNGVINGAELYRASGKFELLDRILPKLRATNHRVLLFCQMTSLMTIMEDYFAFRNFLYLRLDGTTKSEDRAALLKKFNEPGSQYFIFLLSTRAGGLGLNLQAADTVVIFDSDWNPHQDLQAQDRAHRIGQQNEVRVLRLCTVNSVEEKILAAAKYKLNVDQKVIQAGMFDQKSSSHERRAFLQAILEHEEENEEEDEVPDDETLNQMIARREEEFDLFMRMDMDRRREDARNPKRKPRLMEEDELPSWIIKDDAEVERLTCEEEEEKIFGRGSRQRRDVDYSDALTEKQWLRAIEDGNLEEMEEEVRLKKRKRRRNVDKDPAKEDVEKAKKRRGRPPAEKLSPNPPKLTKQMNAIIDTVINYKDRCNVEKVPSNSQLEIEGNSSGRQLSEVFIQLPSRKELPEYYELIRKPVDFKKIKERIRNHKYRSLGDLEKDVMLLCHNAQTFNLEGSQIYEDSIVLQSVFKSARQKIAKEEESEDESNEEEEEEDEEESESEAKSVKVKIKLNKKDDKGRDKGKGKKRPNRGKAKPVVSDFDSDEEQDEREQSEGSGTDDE
BRG-1, sequence (P51532 whole entry): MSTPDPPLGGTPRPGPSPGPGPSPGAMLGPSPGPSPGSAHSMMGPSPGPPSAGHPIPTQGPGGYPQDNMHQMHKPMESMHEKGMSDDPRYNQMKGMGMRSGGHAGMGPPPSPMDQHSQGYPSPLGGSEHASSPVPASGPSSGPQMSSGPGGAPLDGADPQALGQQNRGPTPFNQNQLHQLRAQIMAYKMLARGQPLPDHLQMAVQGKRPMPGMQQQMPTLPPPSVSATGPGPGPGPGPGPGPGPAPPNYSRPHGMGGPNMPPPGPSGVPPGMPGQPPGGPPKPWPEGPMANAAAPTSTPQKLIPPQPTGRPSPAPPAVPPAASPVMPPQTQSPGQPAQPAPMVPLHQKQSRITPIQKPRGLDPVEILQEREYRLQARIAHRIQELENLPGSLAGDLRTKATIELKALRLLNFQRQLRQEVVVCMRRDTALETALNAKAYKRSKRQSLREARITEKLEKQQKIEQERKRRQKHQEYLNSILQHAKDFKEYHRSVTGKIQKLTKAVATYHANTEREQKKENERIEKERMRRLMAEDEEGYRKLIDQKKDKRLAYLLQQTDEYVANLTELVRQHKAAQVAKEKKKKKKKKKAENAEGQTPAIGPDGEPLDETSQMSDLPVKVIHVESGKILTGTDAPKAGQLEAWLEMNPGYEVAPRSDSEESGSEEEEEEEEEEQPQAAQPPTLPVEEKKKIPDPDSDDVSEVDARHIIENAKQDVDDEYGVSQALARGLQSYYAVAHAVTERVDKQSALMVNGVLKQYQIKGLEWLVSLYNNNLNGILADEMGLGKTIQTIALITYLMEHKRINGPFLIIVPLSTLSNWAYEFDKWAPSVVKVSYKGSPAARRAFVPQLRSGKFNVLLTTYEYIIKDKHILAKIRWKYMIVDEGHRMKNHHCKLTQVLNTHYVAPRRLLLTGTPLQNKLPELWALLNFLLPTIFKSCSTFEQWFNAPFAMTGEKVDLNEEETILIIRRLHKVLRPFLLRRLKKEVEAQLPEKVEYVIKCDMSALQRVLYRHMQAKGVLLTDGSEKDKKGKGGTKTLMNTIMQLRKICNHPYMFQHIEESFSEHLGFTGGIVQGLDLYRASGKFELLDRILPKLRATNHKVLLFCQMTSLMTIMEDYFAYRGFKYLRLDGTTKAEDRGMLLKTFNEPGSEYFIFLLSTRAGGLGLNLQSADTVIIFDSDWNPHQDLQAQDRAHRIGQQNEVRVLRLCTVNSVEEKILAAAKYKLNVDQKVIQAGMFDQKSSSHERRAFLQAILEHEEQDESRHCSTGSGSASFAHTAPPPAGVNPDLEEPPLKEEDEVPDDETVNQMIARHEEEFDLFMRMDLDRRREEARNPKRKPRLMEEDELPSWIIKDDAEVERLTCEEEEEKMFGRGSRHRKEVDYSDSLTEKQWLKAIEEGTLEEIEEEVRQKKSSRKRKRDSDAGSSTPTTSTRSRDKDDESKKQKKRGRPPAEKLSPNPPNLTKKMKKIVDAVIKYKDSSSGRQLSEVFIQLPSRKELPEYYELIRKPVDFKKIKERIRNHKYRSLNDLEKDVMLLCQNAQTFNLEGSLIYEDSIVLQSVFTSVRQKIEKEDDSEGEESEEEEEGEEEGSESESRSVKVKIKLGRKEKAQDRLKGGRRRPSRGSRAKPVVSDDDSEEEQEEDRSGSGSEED

Row | BRM Max % Inhibition (BRM) | IC50 (BRM) | IC50 (BRG-1; [1]) | Emax (BRG-1; [2]) | Emax (BRG-1; read-out: BRG1 Max % Inhibition, ATPase catalytic activity, ADP-Glo) | SMILES
1 | >60% | 1 to 5 µM | > 5 µM | > 30% |  | Cn1ncc2ccc(-c3csc(NC(=O)CNC(=O)c4ccc5c(c4)[C@@](C)(CO)CC5)n3)cc21 [Compound 261, (S)-3-(hydroxymethyl)-3-methyl-N-(2-((4-(1-methyl-1H-indazol-6-yl)thiazol-2-yl)amino)-2-oxoethyl)-2,3-dihydro-1H-indene-5-carboxamide]
2 | >80% | 1 to 5 µM | 1 to 5 µM | > 50% |  | C[C@@H]1CN(c2cccc(-c3csc(NC(=O)CNC(=O)c4ccc5c(c4)[C@@](C)(C#N)CC5)n3)n2)C[C@H](C)O1 [Compound 262, (S)-3-cyano-N-(2-((4-(6-((cis)-2,6-dimethylmorpholino)pyridin-2-yl)thiazol-2-yl)amino)-2-oxoethyl)-3-methyl-2,3-dihydro-1H-indene-5-carboxamide]
3 | >80% | 0.1 to 1 µM | 1 to 5 µM | > 40% |  | Cc1cnc(O)c(-c2cccc(-c3csc(NC(=O)CNC(=O)c4ccc5c(c4)[C@](C)(CO)CC5)n3)n2)c1 [Compound 263, (R)-N-(2-((4-(2′-hydroxy-5′-methyl-[2,3′-bipyridin]-6-yl)thiazol-2-yl)amino)-2-oxoethyl)-3-(hydroxymethyl)-3-methyl-2,3-dihydro-1H-indene-5-carboxamide]
4 | >70% | 1 to 5 µM | > 5 µM | < 30% |  | C[C@@]1(CO)CCc2ccc(C(=O)NCC(=O)Nc3nc(-c4cccc(-c5cccnc5O)n4)cs3)cc21 [Compound 264, (R)-N-(2-((4-(2′-hydroxy-[2,3′-bipyridin]-6-yl)thiazol-2-yl)amino)-2-oxoethyl)-3-(hydroxymethyl)-3-methyl-2,3-dihydro-1H-indene-5-carboxamide]
5 | >70% | 1 to 5 µM | > 5 µM | > 30% |  | Cn1ccc(-c2cccc(-c3csc(NC(=O)CNC(=O)c4ccc5c(c4)[C@](C)(CO)CC5)n3)n2)n1 [Compound 265, (3R)-3-(hydroxymethyl)-3-methyl-N-[2-[[4-[6-(1-methylpyrazol-3-yl)-2-pyridyl]thiazol-2-yl]amino]-2-oxo-ethyl]indane-5-carboxamide]
6 | >60% | 1 to 5 µM | > 5 µM | > 30% |  | Cc1cc(-c2cccc(-c3csc(NC(=O)CNC(=O)c4ccc5c(c4)[C@@](C)(C#N)CC5)n3)n2)ncn1 [Compound 266, (3S)-3-cyano-3-methyl-N-[2-[[4-[6-(6-methylpyrimidin-4-yl)-2-pyridyl]thiazol-2-yl]amino]-2-oxo-ethyl]indane-5-carboxamide]
7 | >95% | < 0.1 µM | < 0.1 µM | > 95% |  | Cc1cc(-c2cccc(-c3csc(NC(=O)CNC(=O)c4ccc5c(c4)[C@](C)(C#N)CC5)n3)n2)ncn1 [Compound 267, (3R)-3-cyano-3-methyl-N-[2-[[4-[6-(6-methylpyrimidin-4-yl)-2-pyridyl]thiazol-2-yl]amino]-2-oxo-ethyl]indane-5-carboxamide]
8 | >80% | 0.1 to 1 µM | 1 to 5 µM | > 50% |  | Cc1nccc(-c2cccc(-c3csc(NC(=O)CNC(=O)c4ccc5c(c4)[C@@](C)(C#N)CC5)n3)n2)n1 [Compound 268, (3S)-3-cyano-3-methyl-N-[2-[[4-[6-(2-methylpyrimidin-4-yl)-2-pyridyl]thiazol-2-yl]amino]-2-oxo-ethyl]indane-5-carboxamide]
9 | >90% | 0.1 to 1 µM | > 5 µM | > 90% |  | COc1cccc(-c2csc(NC(=O)CNC(=O)c3cc(F)c4c(c3)[C@@](C)(C#N)COC4)n2)c1 [Compound 269, (S)-4-cyano-8-fluoro-N-(2-((4-(3-methoxyphenyl)thiazol-2-yl)amino)-2-oxoethyl)-4-methylisochromane-6-carboxamide]
10 | >95% | < 0.1 µM | 0.1 to 1 µM | > 95% |  | COc1cccc(-c2csc(NC(=O)CNC(=O)c3cc(F)c4c(c3)[C@](C)(C#N)COC4)n2)c1 [Compound 270, (R)-4-cyano-8-fluoro-N-(2-((4-(3-methoxyphenyl)thiazol-2-yl)amino)-2-oxoethyl)-4-methylisochromane-6-carboxamide]
11 | >85% | 0.1 to 1 µM | 1 to 5 µM | > 85% |  | CC1OCCc2cc(C(=O)NCC(=O)Nc3nc(-c4cccc(N5C[C@@H](C)O[C@@H](C)C5)n4)cs3)ccc21 (stereo partly drawn) [Compound 271, N-(2-((4-(6-((cis)-2,6-dimethylmorpholino)pyridin-2-yl)thiazol-2-yl)amino)-2-oxoethyl)-1-methylisochromane-6-carboxamide]
12 | >95% | < 0.1 µM | < 0.1 µM | > 95% |  | C[C@@H]1CN(c2cccc(-c3csc(NC(=O)CNC(=O)c4ccc5c(c4)[C@](F)(C(F)F)CCO5)n3)c2)C[C@H](C)O1 [Compound 274, (S)-4-(difluoromethyl)-N-(2-((4-(3-((cis)-2,6-dimethylmorpholino)phenyl)thiazol-2-yl)amino)-2-oxoethyl)-4-fluorochromane-6-carboxamide]
13 | >95% | < 0.1 µM | 0.1 to 1 µM | > 95% |  | C[C@@H]1CN(c2cccc(-c3csc(NC(=O)CNC(=O)c4ccc5c(c4)[C@@](F)(C(F)F)CCO5)n3)c2)C[C@H](C)O1 [Compound 275, (R)-4-(difluoromethyl)-N-(2-((4-(3-((cis)-2,6-dimethylmorpholino)phenyl)thiazol-2-yl)amino)-2-oxoethyl)-4-fluorochromane-6-carboxamide]
14 | >95% | < 0.1 µM | < 0.1 µM | > 95% |  | O=C(CNC(=O)c1ccc2c(c1)[C@](F)(C(F)F)COC2)Nc1nc(-c2cc(F)cc(N3CCC3)c2)cs1 [Compound 276, (R)-N-(2-((4-(3-(azetidin-1-yl)-5-fluorophenyl)thiazol-2-yl)amino)-2-oxoethyl)-4-(difluoromethyl)-4-fluoroisochromane-6-carboxamide]
15 | >95% | < 0.1 µM | < 0.1 µM | > 95% |  | O=C(CNC(=O)c1ccc2c(c1)[C@@](F)(C(F)F)COC2)Nc1nc(-c2cc(F)cc(N3CCC3)c2)cs1 [Compound 277, (S)-N-(2-((4-(3-(azetidin-1-yl)-5-fluorophenyl)thiazol-2-yl)amino)-2-oxoethyl)-4-(difluoromethyl)-4-fluoroisochromane-6-carboxamide]
16 | >90% | 0.1 to 1 µM | > 5 µM |  | > 90% | COc1cccc(-c2csc(NC(=O)CNC(=O)c3ccc4c(c3)[C@@](C)(F)CCOC4)n2)c1 [Compound 278, (S)-5-fluoro-N-(2-((4-(3-methoxyphenyl)thiazol-2-yl)amino)-2-oxoethyl)-5-methyl-1,3,4,5-tetrahydrobenzo[c]oxepine-7-carboxamide]
17 | >90% | 0.1 to 1 µM | 0.1 to 1 µM | > 90% |  | COc1cccc(-c2csc(NC(=O)CNC(=O)c3ccc4c(c3)[C@](C)(F)CCOC4)n2)c1 [Compound 279, (R)-5-fluoro-N-(2-((4-(3-methoxyphenyl)thiazol-2-yl)amino)-2-oxoethyl)-5-methyl-1,3,4,5-tetrahydrobenzo[c]oxepine-7-carboxamide]
18 | >90% | 0.1 to 1 µM | 1 to 5 µM | > 90% |  | COC(=O)N1CCC(c2csc(NC(=O)CNC(=O)c3ccc4c(c3)[C@](C)(F)COC4)n2)CC1 [Compound 281, methyl (S)-4-(2-(2-(4-fluoro-4-methylisochromane-6-carboxamido)acetamido)thiazol-4-yl)piperidine-1-carboxylate]
19 | >95% | < 0.1 µM | 0.1 to 1 µM | > 95% |  | C[C@@H]1CN(c2cccc(-c3csc(NC(=O)CNC(=O)c4ccc5c(c4)C(C)(C)COC5)n3)n2)C[C@H](C)O1 [Compound 282, N-(2-((4-(6-((cis)-2,6-dimethylmorpholino)pyridin-2-yl)thiazol-2-yl)amino)-2-oxoethyl)-4,4-dimethylisochromane-6-carboxamide]
20 | >95% | < 0.1 µM | 0.1 to 1 µM | > 95% |  | C[C@@H]1CN(c2cccc(-c3csc(NC(=O)CNC(=O)c4cccc([C@]5(C(F)F)CCOC5)c4)n3)c2)C[C@H](C)O1 [Compound 285]
21 | >95% | < 0.1 µM | 1 to 5 µM | > 95% |  | C[C@@H]1CN(c2cccc(-c3csc(NC(=O)CNC(=O)c4cccc([C@@]5(C(F)F)CCOC5)c4)n3)c2)C[C@H](C)O1 [Compound 286, 3-((S)-3-(difluoromethyl)tetrahydrofuran-3-yl)-N-(2-((4-(3-((cis)-2,6-dimethylmorpholino)phenyl)thiazol-2-yl)amino)-2-oxoethyl)benzamide]
22 | >75% | 0.1 to 1 µM | > 5 µM | > 75% |  | CN1C[C@](C)(C#N)c2cc(C(=O)NCC(=O)Nc3nc(-c4cc(F)cc(N5CCC5)c4)cs3)ccc21 [Compound 288, (R)-N-(2-((4-(3-(azetidin-1-yl)-5-fluorophenyl)thiazol-2-yl)amino)-2-oxoethyl)-3-cyano-1,3-dimethylindoline-5-carboxamide]
23 | >95% | < 0.1 µM | < 0.1 µM | > 95% |  | CN1C[C@@](C)(C#N)c2cc(C(=O)NCC(=O)Nc3nc(-c4cc(F)cc(N5CCC5)c4)cs3)ccc21 [Compound 289, (S)-N-(2-((4-(3-(azetidin-1-yl)-5-fluorophenyl)thiazol-2-yl)amino)-2-oxoethyl)-3-cyano-1,3-dimethylindoline-5-carboxamide]
